Data on 10 compounds can be found in patent US11285156B2, “Substituted piperazines as KRAS G12C inhibitors” (Amgen Inc., priority 2018, dated 2022).

Where two headings read alike, the source gives them in different places. A value given as a limit tells only on which side of the number the result lay.

Experiment [1] has as its system Phosphorylation of ERK1/2 in MIA PaCa-2 cells. Nature of the experiment: Phospho-ERK1/2 MSD assay in MIA PaCa-2 cells. The class given is cell-based. The conditions noted are these: read-out: p-ERK IC50 (2 h, MiaPaCa-2; μM), 2 h compound treatment, MIA PaCa-2 cells, EGF stimulated. The method, then: (§1) Phospho-ERK1/2 MSD Assay:
(§2) Sixteen hours prior to compound treatment, MIA PaCa-2 or A549 cells were seeded in 96-well cell culture plates at a density of 25,000 cells/well and incubated at 37° C., 5% CO2. A compound dose-response titration was diluted in growth media, added to appropriate wells of a cell culture plate, and then incubated at 37° C., 5% CO2 for 2 or 4 hours (see Table 15). Following compound treatment, cells were stimulated with 10 ng/mL EGF (Roche 11376454001) for 10 min, washed with ice-cold Dulbecco's phosphate-buffered saline, no Ca2+ or Mg2+ (ThermoFisher Scientific 14190144), and then lysed in RIPA buffer (50 mM Tris-HCl pH 7.5, 1% Igepal, 0.5% sodium deoxycholate, 150 mM NaCl. and 0.5% sodium dodecyl sulfate) containing protease inhibitors (Roche 4693132001) and phosphatase inhibitors (Roche 4906837001). Phosphorylation of ERK1/2 in compound-treated lysates was assayed using Phospho-ERK1/2 Whole Cell Lysate kits (Meso Scale Discovery K151DWD) according to the manufacturer's protocol.

The subject of experiment [2] is Phosphorylation of ERK1/2 in A549 cells. Nature of the experiment: Phospho-ERK1/2 MSD assay in A549 cells. Type of experiment: cell-based. Particulars: read-out: p-ERK IC50 (2 h, A549; μM), 2 h compound treatment, A549 cells, EGF stimulated. As for the experimental part:
as §1
as §2, with “MIA PaCa-2 (ATCC® CRL-1420™) and A549 (ATCC® CCL-185™) cells were cultured in RPMI 1640 Medium (ThermoFisher Scientific 11875093) containing 10% fetal bovine serum (ThermoFisher Scientific 16000044) and 1× penicillin-streptomycin-glutamine (ThermoFisher Scientific 10378016). Sixteen” for “Sixteen”

Broadly, the IC50 is the midpoint of a concentration-inhibition curve. Turning to `C=CC(=O)N1C[C@H](C)N(c2nc(=O)n(-c3c(C)cc(C)nc3C(C)C)c3nc(-c4ccccc4F)c(Cl)cc23)C[C@H]1C` (single isomer, unassigned) [Example 165-1], the half-maximal inhibitory concentration (IC50) in experiment [1] (Homo sapiens, MIA PaCa-2, 2 h) is 0.049 µM; in experiment [2] (Homo sapiens, A549, 2 h), over 7.5 µM.

In the case of `C=CC(=O)N1C[C@H](C)N(c2nc(=O)n(-c3c(C)cc(C(=C)C)nc3C(C)C)c3nc(-c4ccccc4F)c(Cl)cc23)C[C@H]1C` (single isomer, unassigned) [Example 173-1], the IC50 came to 0.229 µM in experiment [1] (Homo sapiens, MIA PaCa-2, 2 h) and 5.97 µM in experiment [2] (Homo sapiens, A549, 2 h).

`C=CC(=O)N1C[C@H](C)N(c2nc(=O)n(-c3c(C)cc(N4CCC4)nc3C(C)C)c3nc(-c4ccccc4F)c(Cl)cc23)C[C@H]1C` (single isomer, unassigned) [Example 175-2]: the IC50 is 0.171 µM in experiment [1] (Homo sapiens, MIA PaCa-2, 2 h) and over 7.5 µM in experiment [2] (Homo sapiens, A549, 2 h).

`C=CC(=O)N1C[C@H](C)N(c2nc(=O)n(-c3c(C)cc(C(C)C)nc3C(C)C)c3nc(-c4ccccc4F)c(Cl)cc23)C[C@H]1C` (single isomer, unassigned) [Example 176-1]: the IC50 was found to be 0.347 µM in experiment [1] (Homo sapiens, MIA PaCa-2, 2 h) and 5.75 µM in experiment [2] (Homo sapiens, A549, 2 h).

With `C=CC(=O)N1C[C@H](C)N(c2nc(=O)n(-c3c(C)cc(C=C)nc3C(C)C)c3nc(-c4ccccc4F)c(Cl)cc23)C[C@H]1C` (single isomer, unassigned) [Example 177-1], the IC50 in experiment [1] (Homo sapiens, MIA PaCa-2, 2 h) was found to be 0.063 µM; in experiment [2] (Homo sapiens, A549, 2 h) it was 3.34 µM.

With `C=CC(=O)N1[C@H](C)CN(c2nc(=O)n(-c3c(C(C)C)cnnc3C(C)C)c3nc(-c4ccccc4F)c(Cl)cc23)C[C@@H]1C` (single isomer, unassigned) [Example 206-1, 4-(cis-4-Acryloyl-3,5-dimethylpiperazin-1-yl)-6-chloro-1-(3,5-diisopropylpyridazin-4-yl)-7-(2-fluorophenyl)pyrido[2,3-d]pyrimidin-2(1H)-one], the IC50 is 0.1 µM in experiment [1] (Homo sapiens, MIA PaCa-2, 2 h) and over 7.5 µM in experiment [2] (Homo sapiens, A549, 2 h).

As for `C=CC(=O)N1C[C@H](C)N(c2nc(=O)n(-c3c(Cl)ccnc3C(C)C)c3nc(-c4ccccc4F)c(Cl)cc23)C[C@H]1C` [Example 55-50, 6-Chloro-1-(4-chloro-2-isopropyl-3-pyridyl)-4-[(2S,5R)-2,5-dimethyl-4-prop-2-enoyl-piperazin-1-yl]-7-(2-fluorophenyl)pyrido[2,3-d]pyrimidin-2-one], the concentration for half-maximal inhibition (IC50) is 0.023 µM in experiment [1] (Homo sapiens, MIA PaCa-2, 2 h) and over 7.5 µM in experiment [2] (Homo sapiens, A549, 2 h).

For `C=CC(=O)N1C[C@H](C)N(c2nc(=O)n(-c3c(N(C)C)ccnc3C(C)C)c3nc(-c4c(N)cccc4F)c(Cl)cc23)C[C@H]1C` [Example 55-54, 7-(2-Amino-6-fluoro-phenyl)-6-chloro-1-[4-(dimethylamino)-2-isopropyl-3-pyridyl]-4-[(2S,5R)-2,5-dimethyl-4-prop-2-enoyl-piperazin-1-yl]pyrido[2,3-d]pyrimidin-2-one], the IC50 in experiment [1] was 0.016 µM; in experiment [2] (Homo sapiens, A549, 2 h) it was over 7.5 µM.

In the case of `C=CC(=O)N1C[C@H](C)N(c2nc(=O)n(-c3c(N(C)C)ccnc3C(C)C)c3nc(-c4c(N)cccc4F)c(Cl)cc23)C[C@H]1C` [Example 55-56, 7-(2-Amino-6-fluoro-phenyl)-6-chloro-1-[4-(dimethylamino)-2-isopropyl-3-pyridyl]-4-[(2S,5R)-2,5-dimethyl-4-prop-2-enoyl-piperazin-1-yl]pyrido[2,3-d]pyrimidin-2-one], the IC50 in experiment [1] is 0.01 µM; in experiment [2] it was over 7.5 µM.

Consider `C=CC(=O)N1C[C@H](C)N(c2nc(=O)n(-c3c(N(C)C)ccnc3C(C)C)c3nc(-c4c(N)cccc4F)c(Cl)cc23)C[C@H]1C` [Example 55-57, 7-(2-Amino-6-fluoro-phenyl)-6-chloro-1-[4-(dimethylamino)-2-isopropyl-3-pyridyl]-4-[(2S,5R)-2,5-dimethyl-4-prop-2-enoyl-piperazin-1-yl]pyrido[2,3-d]pyrimidin-2-one], for which the IC50 is 0.177 µM in experiment [1] and over 7.5 µM in experiment [2].
